# Data: ChEMBL document CHEMBL5046324, “Small-Molecule Inhibitor of the Oncogenic KRASG12C Mutant for the Treatment of Currently Incurable Cancer” (ACS Med Chem Lett, 2022)
# Columns and labels:
# GTPase KRas [1] = target: T1, GTPase KRas (Homo sapiens, UniProt P01116, G12C); assay: Inhibition of KRAS G12C mutant in human HCC1171 cells assessed as effect on cell alkylation measured after 18 hrs by western blot analysis; assay type: cell-based
# GTPase KRas [2] = target: T1, GTPase KRas; assay: Inhibition of KRAS G12C mutant (2 to 188 residues) (unknown origin) expressed in Escherichia coli assessed as inhibition of SOS mediated nucleotide exchange at 4 degreeC for 18 hrs by HTRF assay
# GTPase KRas [3] = target: T1, GTPase KRas; assay: Inhibition of KRAS G12C mutant (2 to 188 residues) (unknown origin) expressed in Escherichia coli assessed as inhibition of SOS mediated nucleotide exchange at 21 degreeC for 15 mins by HTRF assay
# GTPase KRas [4] = target: T1, GTPase KRas; assay: Inhibition of KRAS G12C mutant (2 to 188 residues) (unknown origin) expressed in Escherichia coli assessed as inhibition of SOS mediated nucleotide exchange measured after 18 hrs by HTRF assay
SMILES,EC50 (GTPase KRas [1]) [nM],IC50 (GTPase KRas [4]) [nM],IC50 (GTPase KRas [2]) [nM],IC50 (GTPase KRas [3]) [nM]
C=CC(=O)N1CCN(c2nc(OC[C@@H]3CCCN3C)nc3c2CC[C@]2(CCc4ccccc4C2)C3)C[C@@H]1CC#N,,,60,131
C=CC(=O)N1CCN(c2nc(OC[C@@H]3CCCN3C)nc3c2CCC2(CCc4ccccc4C2)C3)C[C@@H]1CC#N (stereo partly specified),,,46,142
C=CC(=O)N1CCN(c2nc(OCc3cn(C)cn3)nc3c2CC[C@H](c2cc(O)cc4ccccc24)C3)[C@@H](C)C1,3000,470,,
C=CC(=O)N1CCN(c2nc(OC[C@@H]3CCCN3C)nc3c2CC[C@@]2(CCc4ccccc4C2)C3)C[C@@H]1CC#N,,,51,291

# Further lines, with some results ahead:
EC50 (GTPase KRas [1]) [nM],IC50 (GTPase KRas [4]) [nM],SMILES,IC50 (GTPase KRas [2]) [nM],IC50 (GTPase KRas [3]) [nM]
< 6.1,,C=CC(=O)N1CCN(c2nc(OC[C@@H]3CCCN3C)nc3c2C[C@@H](C)[C@H](c2cc(O)cc4ccccc24)C3)[C@@H](C)C1,,
40,11,C=CC(=O)N1CCN(c2nc(OC[C@@H]3C[C@H](F)CN3C)nc3c2C[C@@H](C)[C@H](c2cc(O)cc4ccccc24)C3)[C@@H](C)C1,,
